Article PMC12332157, “A preclinical study on the influence of linkers in [^68Ga]Ga-NOTA-X-RM26 radiotracers for PET imaging of GRPR expression” (EJNMMI Research, 2025)
Where two headings read alike, the source gives them in different places. Starred links: 1 amine or outer side, 2 acyl side, 3 side chain; linkers in the order of their positions; H or OH if unused. Non-standard residues stand in square brackets, D forms with d. Residues, ends and D or L forms follow the SMILES beside them. *: point of attachment. NOTA = O=C(O)CN1CCN(CC(=O)O)CCN(CC(=O)*)CC1; Sta = CC(C)C[C@H](N)[C@@H](O)CC(=O)O; X2 = O=C(COc1cccc(CN[*:1])c1)[*:2]; X3 = O=C(COc1ccccc1CN[*:1])[*:2]

Legend:
[1] = Complex stability of 68Ga-labeled peptides in PBS or EDTA solution in PBS (iTLC); assay type: physicochemical; settings: n = 3, mean ± sd; for remaining at 1 h, 1 µM: PBS buffer, pH 7.4, incubation at 37 °C for 1 h in PBS; for Stability in PBS with EDTA: incubation at 37 °C for 1 h in PBS with 1000-fold molar excess of EDTA, in % (unit assumed)
[2] = Octanol-water distribution coefficient (LogD); assay type: physicochemical; settings: n-octanol/PBS; n = 3; mean ± sd
Description: Octanol-water distribution coefficient (LogD) was determined by adding 10 pmol of radiopeptide to an Eppendorf tube containing 500 µL of phosphate-buffered saline (PBS) and 500 µL of n-octanol. Each tube was vortexed for 2 min and centrifuged at 6000 g for 5 min. Three 100 µL fractions were collected from each phase, and their radioactivity was measured.

[3] = Biodistribution in BALB/c nu/nu mice bearing PC-3 xenografts; assay type: in vivo; settings: female, BALB/c nu/nu, mouse, iv, total radioactivity
Description: Female BALB/c nu/nu mice of 18–22 g weight were used in the study. All procedures with animals were conducted in accordance with the EU Directive 2010/63/EU for animal experiments and Swedish national legislation concerning the protection of laboratory animals. The experiments were approved by the ethics committee for animal research in Uppsala (Sweden) with permit number 5.8.18–00473/2021. Animals were housed in individually ventilated cages, under a 12-h light/dark cycle with free access to food and water.
For tumor inoculation, 8·10^6 PC-3 cells in 100 µL PBS were injected subcutaneously into the right hind leg of mice. Mouse weight and tumor size were measured every 2–3 days, and tumor volume was estimated by ellipsoid approximation. A predefined humane endpoint of the experiment was either a 15% weight loss or a tumor volume of 1000 mm^3, neither of which was reached.
Four weeks after tumor cell implantation, mice were randomized and divided into 6 groups (4 animals / group): 3 of them received treatment with ^68Ga-radiolabeled peptides, while the other 3 received the same peptides in addition to 5 nmol of non-labeled NOTA-PEG2-RM26 peptide for GRPR-blocking. Peptides were injected intravenously via the tail veins at a dose of 50 pmol (700 kBq radioactivity dose).
At 2 h post injection, mice were sacrificed by overdose of Ketamine/Xylazine anesthesia, and blood was collected by heart puncture. Then, liver, spleen, lungs, pancreas, kidneys, small intestine, stomach, tail, femur bones, tumor and muscle from the opposite legs were collected, weighed, and radioactivity was measured using a Wizard 2480 gamma counter. Data are presented as percentages of injected activity per gram of tissue (%IA/g).

[4] = parameters: method as in PMID 25684649; settings: same time point (2 h), 40 pmol; cited from earlier work
[5] = blood, 50 pmol, 2 h p.i., i.v., read-out: Radionuclide concentration, Blood
[6] = blood, Blockade (co-injection of NOTA-PEG2-RM26), 2 h, read-out: Radionuclide concentration, Blood
[7] = bone, 50 pmol, 2 h p.i., i.v., read-out: Radionuclide concentration, Bone
[8] = bone, Blockade (co-injection of NOTA-PEG2-RM26), 2 h, read-out: Radionuclide concentration, Bone
[9] = carcass, 50 pmol, 2 h p.i., i.v., read-out: Radionuclide quantity, Carcass
[10] = carcass, Blockade (co-injection of NOTA-PEG2-RM26), 2 h, read-out: Radionuclide quantity, Carcass
[11] = gastrointestinal tract, 50 pmol, 2 h p.i., i.v., read-out: Radionuclide quantity, Gastrointestinal tract
[12] = gastrointestinal tract, Blockade (co-injection of NOTA-PEG2-RM26), 2 h, read-out: Radionuclide quantity, Gastrointestinal tract
[13] = kidneys, 50 pmol, 2 h p.i., i.v., read-out: Radionuclide concentration, Kidneys
[14] = kidneys, Blockade (co-injection of NOTA-PEG2-RM26), 2 h, read-out: Radionuclide concentration, Kidneys
[15] = liver, 50 pmol, 2 h p.i., i.v., read-out: Radionuclide concentration, Liver
[16] = liver, Blockade (co-injection of NOTA-PEG2-RM26), 2 h, read-out: Radionuclide concentration, Liver
[17] = lungs, 50 pmol, 2 h p.i., i.v., read-out: Radionuclide concentration, Lungs
[18] = lungs, Blockade (co-injection of NOTA-PEG2-RM26), 2 h, read-out: Radionuclide concentration, Lungs
[19] = muscle, 50 pmol, 2 h p.i., i.v., read-out: Radionuclide concentration, Muscle
[20] = muscle, Blockade (co-injection of NOTA-PEG2-RM26), 2 h, read-out: Radionuclide concentration, Muscle
[21] = pancreas, 50 pmol, 2 h p.i., i.v., read-out: Radionuclide concentration, Pancreas
[22] = pancreas, Blockade (co-injection of NOTA-PEG2-RM26), 2 h, read-out: Radionuclide concentration, Pancreas
[23] = small intestine, 50 pmol, 2 h p.i., i.v., read-out: Radionuclide concentration, Small Intestines
[24] = small intestine, Blockade (co-injection of NOTA-PEG2-RM26), 2 h, read-out: Radionuclide concentration, Small Intestines
[25] = spleen, 50 pmol, 2 h p.i., i.v., read-out: Radionuclide concentration, Spleen
[26] = spleen, Blockade (co-injection of NOTA-PEG2-RM26), 2 h, read-out: Radionuclide concentration, Spleen
[27] = stomach, 50 pmol, 2 h p.i., i.v., read-out: Radionuclide concentration, Stomach
[28] = stomach, Blockade (co-injection of NOTA-PEG2-RM26), 2 h, read-out: Radionuclide concentration, Stomach
[29] = total (sum of the measured activities), 50 pmol, 2 h p.i., i.v., sum of the measured activities, read-out: Radionuclide quantity, Total
[30] = total, Blockade (co-injection of NOTA-PEG2-RM26), 2 h, read-out: Radionuclide quantity, Total
[31] = tumor (PC-3 xenograft), 50 pmol, 2 h p.i., i.v., PC-3 xenograft, read-out: Radionuclide concentration, Tumor
[32] = tumor (PC-3 xenograft), Blockade (co-injection of NOTA-PEG2-RM26), 2 h, read-out: Radionuclide concentration, Tumor

remaining at 1 h, 1 µM [1] [%] | Stability in PBS with EDTA [1] | logD [2] | tissue uptake at 2 h [3, 5] [%ID/g] | tissue uptake at 2 h [3, 6] [%ID/g] | tissue uptake at 2 h [3, 7] [%ID/g] | tissue uptake at 2 h [3, 8] [%ID/g] | tissue uptake dose at 2 h [3, 9] [%ID] | tissue uptake dose at 2 h [3, 10] [%ID] | tissue uptake dose at 2 h [3, 11] [%ID] | tissue uptake dose at 2 h [3, 12] [%ID] | tissue uptake at 2 h [3, 13] [%ID/g] | tissue uptake at 2 h [3, 14] [%ID/g] | tissue uptake at 2 h [3, 15] [%ID/g] | tissue uptake at 2 h [3, 16] [%ID/g] | tissue uptake at 2 h [3, 17] [%ID/g] | tissue uptake at 2 h [3, 18] [%ID/g] | tissue uptake at 2 h [3, 19] [%ID/g] | tissue uptake at 2 h [3, 20] [%ID/g] | tissue uptake at 2 h [3, 21] [%ID/g] | Structure (SMILES) | also measured
91.7 ± 5.1 | 91.3 ± 5.2 | -0.86 ± 0.02 | 0.47 ± 0.17 | 0.22 ± 0.08 | 0.34 ± 0.05 | 0.23 ± 0.03 | 2.9 ± 0.4 | 5.9 ± 2.7 | 6.5 ± 0.7 | 4.1 ± 2.1 | 6.3 ± 0.9 | 6.2 ± 1.3 | 3.5 ± 0.5 | 1.4 ± 0.4 | 5.7 ± 1.5 | 3.5 ± 2.2 | 0.16 ± 0.05 | 0.21 ± 0.09 | 21 ± 5.2 | CC(=O)N[C@@H](CCCCNC(=O)CN1CCN(CC(=O)O)CCN(CC(=O)O)CC1)C(=O)NCc1ccccc1OCC(=O)N[C@H](Cc1ccccc1)C(=O)N[C@@H](CCC(N)=O)C(=O)N[C@@H](Cc1c[nH]c2ccccc12)C(=O)N[C@@H](C)C(=O)N[C@H](C(=O)NCC(=O)N[C@@H](Cc1c[nH]cn1)C(=O)N[C@@H](CC(C)C)[C@@H](O)CC(=O)N[C@@H](CC(C)C)C(N)=O)C(C)C [[^68Ga]Ga-NOTA-oMA-RM26, metal not drawn] (Ac-K(NOTA)[X3][dF]QWAVGH[Sta]L-NH2) | tissue uptake at 2 h [3, 22]: 2.5 ± 0.6 %ID/g; tissue uptake at 2 h [3, 23]: 3.4 ± 1.3 %ID/g; tissue uptake at 2 h [3, 24]: 0.61 ± 0.13 %ID/g; tissue uptake at 2 h [3, 25]: 1.2 ± 0.3 %ID/g; tissue uptake at 2 h [3, 26]: 0.37 ± 0.08 %ID/g; tissue uptake at 2 h [3, 27]: 3.5 ± 0.7 %ID/g; tissue uptake at 2 h [3, 28]: 1.1 ± 0.7 %ID/g; tissue uptake dose at 2 h [3, 29]: 19.8 ± 2.6 %ID; tissue uptake dose at 2 h [3, 30]: 15.7 ± 2.9 %ID; tissue uptake at 2 h [3, 31]: 10.2 ± 2.7 %ID/g; tissue uptake at 2 h [3, 32]: 1 ± 0.4 %ID/g
 |  | -1.43 ± 0.01 |  |  |  |  |  |  |  |  |  |  |  |  |  |  |  |  |  | CC(C)C[C@H](NC(=O)C[C@H](O)[C@H](CC(C)C)NC(=O)[C@H](Cc1c[nH]cn1)NC(=O)CNC(=O)[C@@H](NC(=O)[C@H](C)NC(=O)[C@H](Cc1c[nH]c2ccccc12)NC(=O)[C@H](CCC(N)=O)NC(=O)[C@@H](Cc1ccccc1)NC(=O)COCCOCCNC(=O)CN1CCN(CC(=O)O)CCN(CC(=O)O)CC1)C(C)C)C(N)=O [[^68Ga]Ga-NOTA-PEG2-RM26, metal not drawn] | accumulation in the kidneys [4]: 1.9 ± 0.3 %IA/g; accumulation in the liver [4]: 1 ± 0.1 %IA/g; accumulation in the lungs [4]: 0.17 ± 0.03 %IA/g; tissue uptake, pancreas [4]: 1.9 ± 0.1 %IA/g; tissue uptake, small intestine [4]: 0.6 ± 0.1 %IA/g; tissue uptake, stomach [4]: 1.4 ± 0.2 %IA/g; tissue uptake, tumor [4]: 5.4 ± 1 %IA/g
92.8 ± 3.3 | 90.6 ± 4.1 | -1.21 ± 0.03 | 0.39 ± 0.08 | 0.42 ± 0.21 | 0.28 ± 0.06 | 0.25 ± 0.03 | 2.8 ± 0.4 | 4.6 ± 0.7 | 4 ± 0.4 | 3.1 ± 1.7 | 8.4 ± 1.4 | 7.6 ± 0.7 | 3.7 ± 1.4 | 2.2 ± 0.5 | 7.1 ± 4.2 | 3.4 ± 0.5 | 0.12 ± 0.02 | 0.12 ± 0.05 | 10.5 ± 3.8 | CC(=O)N[C@@H](CCCCNC(=O)CN1CCN(CC(=O)O)CCN(CC(=O)O)CC1)C(=O)NCc1cccc(OCC(=O)N[C@H](Cc2ccccc2)C(=O)N[C@@H](CCC(N)=O)C(=O)N[C@@H](Cc2c[nH]c3ccccc23)C(=O)N[C@@H](C)C(=O)N[C@H](C(=O)NCC(=O)N[C@@H](Cc2c[nH]cn2)C(=O)N[C@@H](CC(C)C)[C@@H](O)CC(=O)N[C@@H](CC(C)C)C(N)=O)C(C)C)c1 [[^68Ga]Ga-NOTA-mMA-RM26, metal not drawn] (Ac-K(NOTA)[X2][dF]QWAVGH[Sta]L-NH2) | tissue uptake at 2 h [3, 22]: 1.7 ± 0.9 %ID/g; tissue uptake at 2 h [3, 23]: 1.7 ± 0.7 %ID/g; tissue uptake at 2 h [3, 24]: 0.91 ± 0.48 %ID/g; tissue uptake at 2 h [3, 25]: 1.1 ± 0.4 %ID/g; tissue uptake at 2 h [3, 26]: 1.1 ± 0.8 %ID/g; tissue uptake at 2 h [3, 27]: 2.5 ± 0.6 %ID/g; tissue uptake at 2 h [3, 28]: 0.77 ± 0.51 %ID/g; tissue uptake dose at 2 h [3, 29]: 16.5 ± 3.1 %ID; tissue uptake dose at 2 h [3, 30]: 12.6 ± 2 %ID; tissue uptake at 2 h [3, 31]: 12.3 ± 2.8 %ID/g; tissue uptake at 2 h [3, 32]: 1.8 ± 0.2 %ID/g
